Results from EP2100894A1, “Pyridopyrimidines used as Plk1 (polo-like kinase) inhibitors” (4SC AG, priority 2008, dated 2009).

Molecular target: T1, PIk1 (Homo sapiens, UniProt P53350)
T1 construct: His tag (histidine tag) (N); made in house; host or cells: SF9 insect cells
Assay: PIk1 kinase activity inhibition assay (33P incorporation into alpha casein, flash plates)
Type: biochemical
Settings: recombinant N-terminally histidine-tagged PIk1, alpha casein as substrate, 100 nM Li-ATP, 80 minutes at 30°C
Method: The inhibition of PIk1 kinase activity can be measured using recombinant PIk1 protein expressed as an N-terminally histidine-tagged protein in SF9 insect cells and alpha casein as substrate. The PIk1 assay is run in 96 well plates by incubating 50 to 100 ng per well recombinant PIk1, 500 ng per well alpha casein (Sigma, # C-6780) as substrate, 10 µl of compound of invention (test compounds were dissolved as 20 mM solutions in dimethylsulfoxide (DMSO) and subsequently diluted), and 100 nM Li-ATP (including ^33P-ATP) in 100 µl of reaction buffer ([…], pH 7.5; 3 mM MgCl2; 3 mM MnCl2; 3 µM Na-Orthovanadat; 1 mM DTT; 1 µg/ml PEG 8000) for 80 minutes at 30°C. The reactions are terminated by adding 100 µl stopping buffer (2% H3PO4 for 5 minutes) and are washed 3 times with washing solution (0,9% NaCl). Determining ^33P incorporated into the protein substrate alpha casein, the detection is based on the adhesion of the phosphorylated protein to the surface of scintillator-coated flash plates (Perkin Elmer, USA; # SMP-200). Phosphorylation of alpha casein is measured by counting the radioactivity bound to the plate for 60 sec. using a plate reader (Perkin Elmer, USA; Wallac Microbeta). By this method, the IC50 value of the PIk1 inhibition is determined as described above. […]

T1 sequence (P53350 whole entry): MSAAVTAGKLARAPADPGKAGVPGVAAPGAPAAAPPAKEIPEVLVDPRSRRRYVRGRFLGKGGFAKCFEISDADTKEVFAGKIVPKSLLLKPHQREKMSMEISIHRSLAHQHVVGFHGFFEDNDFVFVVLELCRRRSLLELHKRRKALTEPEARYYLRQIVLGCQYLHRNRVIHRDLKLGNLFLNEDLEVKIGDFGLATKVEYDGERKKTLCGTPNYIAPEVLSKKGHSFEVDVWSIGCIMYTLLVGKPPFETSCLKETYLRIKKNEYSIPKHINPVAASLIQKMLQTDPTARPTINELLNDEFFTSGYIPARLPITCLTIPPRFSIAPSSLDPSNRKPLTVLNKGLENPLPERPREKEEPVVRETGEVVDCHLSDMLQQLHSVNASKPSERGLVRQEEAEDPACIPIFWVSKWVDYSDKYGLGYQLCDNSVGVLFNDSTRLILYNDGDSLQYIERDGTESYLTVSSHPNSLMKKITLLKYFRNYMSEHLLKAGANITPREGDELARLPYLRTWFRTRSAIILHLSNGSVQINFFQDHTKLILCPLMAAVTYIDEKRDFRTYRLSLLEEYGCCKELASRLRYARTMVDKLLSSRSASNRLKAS

| IC50 [nM] | SMILES |
| --- | --- |
| < 10 | Cc1cc(C(=O)NC2CCN(C)CC2)ccc1Nc1ncc2c(n1)c(-c1ccsc1)c(OCC1CC1)c(=O)n2C [Example 66, 4-{[7-(cyclopropylmethoxy)-5-methyl-6-oxo-8-(3-thienyl)-5,6-dihydropyrido[3,2-d]pyrimidin-2-yl]amino}-3-methyl-N-(1-methylpiperidin-4-yl)benzamide] |
| < 10 | C/C=C/c1c(OCC2CC2)c(=O)n(C)c2cnc(Nc3ccc(C(=O)NC4CCN(C)CC4)cc3Cl)nc12 [Example 67, 3-chloro-4-({7-(cyclopropylmethoxy)-5-methyl-6-oxo-8-[(1E)-prop-1-en-1-yl]-5,6-dihydropyrido[3,2-d]pyrimidin-2-yl}amino)-N-(1-methylpiperidin-4-yl)benzamide] |
| < 10 | COc1cc(C(=O)NC2CCN(C)CC2)ccc1Nc1ncc2c(n1)c(-c1ccncc1)c(OCC1CC1)c(=O)n2C [Example 68, 4-{[7-(cyclopropylmethoxy)-5-methyl-6-oxo-8-pyridin-4-yl-5,6-dihydro-pyrido[3,2-d]pyrimidin-2-yl]amino}-3-methoxy-N-(1-methylpiperidin-4-yl)benzamide] |
| < 10 | COc1cc(C(=O)NC2CCN(C)CC2)ccc1Nc1ncc2c(n1)c(-c1cccnc1)c(OCC1CC1)c(=O)n2C [Example 69, 4-{[7-(cyclopropylmethoxy)-5-methyl-6-oxo-8-pyridin-3-yl-5,6-dihydro-pyrido[3,2-d]pyrimidin-2-yl]amino}-3-methoxy-N-(1-methylpiperidin-4-yl)benzamide] |
| < 10 | CN1CCC(NC(=O)c2ccc(Nc3ncc4c(n3)c(-c3ccsc3)c(OCC3CC3)c(=O)n4C)c(Cl)c2)CC1 [Example 70, 3-chloro-4-{[7-(cyclopropylmethoxy)-5-methyl-6-oxo-8-(3-thienyl)-5,6-dihydropyrido[3,2-d]pyrimidin-2-yl]amino}-N-(1-methylpiperidin-4-yl)benzamide] |
| < 100 | COc1cc(C(=O)NC2CCN(C)CC2)ccc1Nc1ncc2c(n1)c(-c1ccccc1C)c(OCC1CC1)c(=O)n2C [Example 71, 4-{[7-(cyclopropylmethoxy)-5-methyl-8-(2-methylphenyl)-6-oxo-5,6-dihydropyrido[3,2-d]pyrimidin-2-yl]amino}-3-methoxy-N-(1-methylpiperidin-4-yl)benzamide] |
| < 10 | CCc1cc(C(=O)NC2CCN(C)CC2)ccc1Nc1ncc2c(n1)c(-c1ccsc1)c(OCC1CC1)c(=O)n2C [Example 72, 4-{[7-(cyclopropylmethoxy)-5-methyl-6-oxo-8-(3-thienyl)-5,6-dihydro-pyrido[3,2-d]pyrimidin-2-yl]amino}-3-ethyl-N-(1-methylpiperidin-4-yl)benzamide] |
| < 10 | COc1cc(C(=O)NC2CCN(C)CC2)ccc1Nc1ncc2c(n1)c(-c1ccc[nH]1)c(OCC1CC1)c(=O)n2C [Example 73, 4-{[7-(cyclopropylmethoxy)-5-methyl-6-oxo-8-(1H-pyrrol-2-yl)-5,6-dihydro-pyrido[3,2-d]pyrimidin-2-yl]amino}-3-methoxy-N-(1-methylpiperidin-4-yl)benzamide] |
| < 10 | COc1cc(C(=O)NC2CCN(C)CC2)ccc1Nc1ncc2c(n1)c(-c1ccccn1)c(OCC1CC1)c(=O)n2C [Example 74, 4-{[7-(cyclopropylmethoxy)-5-methyl-6-oxo-8-pyridin-2-yl-5,6-dihydro-pyrido[3,2-d]pyrimidin-2-yl]amino}-3-methoxy-N-(1-methylpiperidin-4-yl)benzamide] |
| < 10 | CCOc1cc(C(=O)NC2CCN(C)CC2)ccc1Nc1ncc2c(n1)c(-c1ccsc1)c(OCC1CC1)c(=O)n2C [Example 75, 4-{[7-(cyclopropylmethoxy)-5-methyl-6-oxo-8-(3-thienyl)-5,6-dihydro-pyrido[3,2-d]pyrimidin-2-yl]amino}-3-ethoxy-N-(1-methylpiperidin-4-yl)benzamide] |

Further lines, the compound ahead of its results:

| SMILES | IC50 [nM] |
| --- | --- |
| COc1cc(C(=O)NC2CCN(C)CC2)ccc1Nc1ncc2c(n1)c(-c1ccc(F)cc1)c(OCC1CC1)c(=O)n2C [Example 52, 4-{[7-(cyclopropylmethoxy)-8-(4-fluorophenyl)-5-methyl-6-oxo-5,6-dihydropyrido[3,2-d]pyrimidin-2-yl]amino}-3-methoxy-N-(1-methylpiperidin-4-yl)benzamide] | < 10 |
| COc1cc(C(=O)NC2CCN(C)CC2)ccc1Nc1ncc2c(n1)c(-c1cccs1)c(OCC1CC1)c(=O)n2C [Example 53, 4-{[7-(cyclopropylmethoxy)-5-methyl-6-oxo-8-(2-thienyl)-5,6-dihydro-pyrido[3,2-d]pyrimidin-2-yl]amino}-3-methoxy-N-(1-methylpiperidin-4-yl)benzamide] | < 10 |
| COc1cc(C(=O)NC2CCN(C)CC2)ccc1Nc1ncc2c(n1)c(-c1cccc(F)c1)c(OCC1CC1)c(=O)n2C [Example 54, 4-{[7-(cyclopropylmethoxy)-8-(3-fluorophenyl)-5-methyl-6-oxo-5,6-dihydropyrido[3,2-d]pyrimidin-2-yl]amino}-3-methoxy-N-(1-methylpiperidin-4-yl)benzamide] | < 10 |
| COc1cc(C(=O)NC2CCN(C)CC2)ccc1Nc1ncc2c(n1)c(-c1cc(C)cs1)c(OCC1CC1)c(=O)n2C [Example 55, 4-{[7-(cyclopropylmethoxy)-5-methyl-8-(4-methyl-2-thienyl)-6-oxo-5,6-dihydropyrido[3,2-d]pyrimidin-2-yl]amino}-3-methoxy-N-(1-methylpiperidin-4-yl)benzamide] | < 10 |
| C/C=C/c1c(OC2CC2)c(=O)n(C)c2cnc(Nc3ccc(C(=O)NC4CCN(C)CC4)cc3OC)nc12 [Example 56, 4-({7-(cyclopropyloxy)-5-methyl-6-oxo-8-[(1E)-prop-1-en-1-yl]-5,6-dihydropyrido[3,2-d]pyrimidin-2-yl}amino)-3-methoxy-N-(1-methylpiperidin-4-yl)benzamide] | < 10 |
| COc1cc(C(=O)NC2CCN(C)CC2)ccc1Nc1ncc2c(n1)c(C1=CCCC1)c(OCC1CC1)c(=O)n2C [Example 57, 4-{[8-cyclopent-1-en-1-yl-7-(cyclopropylmethoxy)-5-methyl-6-oxo-5,6-dihydropyrido[3,2-d]pyrimidin-2-yl]amino}-3-methoxy-N-(1-methylpiperidin-4-yl)benzamide] | < 10 |
| COc1cc(C(=O)NC2CCN(C)CC2)ccc1Nc1ncc2c(n1)c(-c1ccsc1)c(OC1CC1)c(=O)n2C [Example 58, 4-{[7-(cyclopropyloxy)-5-methyl-6-oxo-8-(3-thienyl)-5,6-dihydropyri-do[3,2-d]pyrimidin-2-yl]amino}-3-methoxy-N-(1-methylpiperidin-4-yl)benzamide] | < 10 |
| COc1cc(C(=O)NC2CCN(C)CC2)ccc1Nc1ncc2c(n1)c(-c1ccccc1F)c(OCC1CC1)c(=O)n2C [Example 59, 4-{[7-(cyclopropylmethoxy)-8-(2-fluorophenyl)-5-methyl-6-oxo-5,6-dihydropyrido[3,2-d]pyrimidin-2-yl]amino}-3-methoxy-N-(1-methylpiperidin-4-yl)benzamide] | < 10 |
| COc1cc(C(=O)NC2CCN(C)CC2)ccc1Nc1ncc2c(n1)c(-c1csc(C)c1)c(OCC1CC1)c(=O)n2C [Example 60, 4-{[7-(cyclopropylmethoxy)-5-methyl-8-(5-methyl-3-thienyl)-6-oxo-5,6-dihydropyrido[3,2-d]pyrimidin-2-yl]amino}-3-methoxy-N-(1-methylpiperidin-4-yl)benzamide] | < 10 |
| COc1cc(C(=O)NC2CCN(C)CC2)ccc1Nc1ncc2c(n1)c(-c1cccc(C)c1)c(OCC1CC1)c(=O)n2C [Example 61, 4-{[7-(cyclopropylmethoxy)-5-methyl-8-(3-methylphenyl)-6-oxo-5,6-dihydropyrido[3,2-d]pyrimidin-2-yl]amino}-3-methoxy-N-(1-methylpiperidin-4-yl)benzamide] | < 10 |
| COc1cc(C(=O)NC2CCN(C)CC2)ccc1Nc1ncc2c(n1)c(-c1ccc(C)cc1)c(OCC1CC1)c(=O)n2C [Example 62, 4-{[7-(cyclopropylmethoxy)-5-methyl-8-(4-methylphenyl)-6-oxo-5,6-dihydropyrido[3,2-d]pyrimidin-2-yl]amino}-3-methoxy-N-(1-methylpiperidin-4-yl)benzamide] | < 10 |
| COc1cc(C(=O)NC2CCN(C)CC2)ccc1Nc1ncc2c(n1)c(-c1cscn1)c(OCC1CC1)c(=O)n2C [Example 63, 4-{[7-(cyclopropylmethoxy)-5-methyl-6-oxo-8-(1,3-thiazol-4-yl)-5,6-dihydropyrido[3,2-d]pyrimidin-2-yl]amino}-3-methoxy-N-(1-methylpiperidin-4-yl)benzamide] | < 10 |
| C/C=C/c1c(OCC2CC2)c(=O)n(C)c2cnc(Nc3ccc(C(=O)NC4CCN(C)CC4)cc3C)nc12 [Example 64, 4-({7-(cyclopropylmethoxy)-5-methyl-6-oxo-8-[(1E)-prop-1-en-1-yl]-5,6-dihydropyrido[3,2-d]pyrimidin-2-yl}amino)-3-methyl-N-(1-methylpiperidin-4-yl)benzamide] | < 10 |
| C/C=C/c1c(OCC2CC2)c(=O)n(C)c2cnc(Nc3ccc(C(=O)NC4CCN(C)CC4)cc3CC)nc12 [Example 65, 4-({7-(cyclopropylmethoxy)-5-methyl-6-oxo-8-[(1E)-prop-1-en-1-yl]-5,6-dihydropyrido[3,2-d]pyrimidin-2-yl}amino)-3-ethyl-N-(1-methylpiperidin-4-yl)benzamide] | < 10 |
